From patent publication US20250025543A1, “DRUG FOR TREATING AND/OR PREVENTING CANCER AND USE THEREOF” (YUANBEN (ZHUHAI HENGQIN) BIOTECHNOLOGY CO., LTD., priority 2021, published 2025)
Like-named read-outs stand apart in the source and are kept apart here.

Assays:
MC38 colon cancer [1] = conditions: for Tumor cure rate: groups of 8; for Tumor inhibition rate: vs NS control group
Protocol: (§1) The tumor graft inhibition rate and the tumor inhibition rate of the subcutaneous colon cancer in each group were calculated. The formula is as follows: [tumor inhibition rate=(mean tumor weight in control group −mean tumor weight in experimental group)/mean tumor weight in control group×100%]. [tumor cure rate=(number of mice without tumor/total number of mice)×100%].
Mice were weighed and randomly divided into groups of 8. MC38 colon cancer cells were diluted with an IMDM basal medium and inoculated in the right axilla of the C57BL/J mice according to 5×10^5 cells/mouse, with a total amount of 100 μL/mouse, for modeling. After the tumor diameter reached 5 mm, the mice were divided into 4 groups, namely a normal saline control group (NS group), an oxaliplatin injection group (oxaliplatin group), a recombinant MBP-MUC1-N fusion protein vaccine group (vaccine group), and an oxaliplatin in combination with recombinant MBP-MUC1-N fusion protein vaccine formulation group (combination group). On day 3, day 7, day 10, day 14, and day 17 of tumor bearing, the recombinant MBP-MUC1-N fusion protein vaccine formulation was intramuscularly injected at a dose of 100 pg/mouse (diluted with NS, with a total amount of 200 μL) for immunization, and oxaliplatin was intraperitoneally injected at a dose of 3 mg/kg (diluted with 12% DMSO).

MC38 colon cancer [2] = system: MC38 colon cancer
Protocol: Mice were weighed and randomly divided into groups of 6. MC38 colon cancer cells were diluted with an IMDM basal medium and inoculated in the right axilla of the C57BL/J mice according to 5×10^5 cells/mouse, with a total amount of 100 μL/mouse, for modeling. After the tumor diameter reached 5 mm, the mice were divided into 4 groups, namely a normal saline control group (NS group), an immune checkpoint inhibitor anti-PD-1 antibody injection group (PD-1 group), a recombinant MBP-MUC1-N fusion protein vaccine group (vaccine group), and a recombinant MBP-MUC1-N fusion protein vaccine formulation in combination with immune checkpoint inhibitor anti-PD1 antibody group (combination group). On day 3, day 7, day 10, day 14, and day 17 of tumor bearing, the recombinant MBP-MUC1-N fusion protein vaccine formulation was intramuscularly injected at a dose of 100 μg/mouse (diluted with NS, with a total amount of 200 μL) for immunization, and the immune checkpoint inhibitor anti-PD-1 antibody was intraperitoneally injected at a dose of 250 μg/mouse (diluted with NS, with a total amount of 500 tL/mouse).
as §1

MC38 colon cancer [3] = assay: Vaccine prepared by three-step purification in treatment of MC38 colon cancer alone, compared with anti-PD-1 antibody (Example 3); format: in vivo, C57 BL/6J mice

Compound	Tumor volume (MC38 colon cancer [1]; 5 days after injection) [cm^3]	Tumor volume (MC38 colon cancer [1]; 7 days after injection) [cm^3]	Survival time of the mice suffering from the cancer (MC38 colon cancer [1]; MC38 tumor-bearing mice, FIG. 3) [days]	Tumor cure rate (MC38 colon cancer [1]) [%]	Tumor inhibition rate (MC38 colon cancer [1]) [%]	Tumor weight (MC38 colon cancer [2]; MC38 tumor-bearing mice, vaccine 100 μg/mouse i.m., anti-PD-1 antibody 250 μg/mouse i.p., day 3, 7, 10, 14, 17 of tumor bearing) [g]	Tumor inhibition rate (MC38 colon cancer [2]; from mean tumor weight vs NS control group) [%]	Tumor cure rate (MC38 colon cancer [2]; number of mice without tumor/total number of mice, groups of 6) [%]	Tumor volume (MC38 colon cancer [3]; 3 days after injection)	Tumor volume (MC38 colon cancer [3]; 7 days after injection)	Tumor volume (MC38 colon cancer [3]; 10 days after injection)	Tumor weight (MC38 colon cancer [3]; MC38 tumor-bearing mice, vaccine 50 μg/mouse i.m., anti-PD-1 antibody 200 μg/mouse i.p., day 3, 7, 10, 14 of tumor bearing) [g]	Tumor cure rate (MC38 colon cancer [3]; groups of 10) [%]	Tumor inhibition rate (MC38 colon cancer [3]; vs PBS control group) [%]
O=C1[O][Pt]2([NH][C@@H]3CCCC[C@H]3[NH]2)[O]C1=O [Oxaliplatin group, oxaliplatin]	0.46 ± 0.12	0.81 ± 0.20	29	12.5	50									
Vaccine group: recombinant fusion protein of maltose-binding protein MBP and human mucin MUC1-N in tandem (SEQ ID NO. 3), as vaccine				0	27	1.96 ± 0.80	26	0	0.41+0.17 cm^3	1.11+0.83 cm^3	1.53+0.55 cm^3	1.53 ± 0.55	40	40
